From publication PMC7529555 (Thoracic Cancer, 2020)

Assays:
[1] = tested on: osimertinib metabolism in rat liver microsomes; test: Inhibition by avitinib of osimertinib metabolism in rat liver microsomes; assay type: in vitro ADME; conditions: pH 7.4, probe osimertinib 0.01 μM
wild-type EGFR = conditions: cited from earlier work
[2] = Metabolic stability of osimertinib in RLMs; assay type: in vitro ADME, rat; conditions: rat, rat liver microsomes, pH 7.4
[3] = tested on: rat liver microsomes (RLM); test: Metabolic stability of osimertinib in RLMs; assay type: in vitro ADME; conditions: osimertinib incubation with RLMs
[4] = Pharmacokinetics of osimertinib in rats after pretreatment with avitinib; assay type: in vivo, Sprague-Dawley rats
[5] = avitinib multiple doses group vs control
[6] = avitinib single dose group vs control

| SMILES | IC50 [1] [µM] | effect on wild-type EGFR (wild-type EGFR) | half-life at 0.01 μM [2] [min] | Slope (Ln remaining percent vs incubation time) [3] | decrease of CLz/F vs control [4, 5] [%] | increase of AUC(0-t) vs control [4, 5] [fold] | increase of AUC(0-∞) vs control [4, 5] [fold] | increase of Cmax vs control [4, 5] [fold] | increase of MRT(0-t) vs control [4, 5] [fold] | increase of Tmax vs control [4, 5] [fold] | decrease of CLz/F vs control [4, 6] [%] | increase of AUC(0-t) vs control [4, 6] [fold] | increase of AUC(0-∞) vs control [4, 6] [fold] | increase of Cmax vs control [4, 6] [fold] | increase of MRT(0-t) vs control [4, 6] [fold] | increase of Tmax vs control [4, 6] [fold] | inhibitory effect on the wild-type EGFR protein (wild-type EGFR) |
| --- | --- | --- | --- | --- | --- | --- | --- | --- | --- | --- | --- | --- | --- | --- | --- | --- | --- |
| C=CC(=O)Nc1cccc(Oc2nc(Nc3ccc(N4CCN(C)CC4)c(F)c3)nc3[nH]ccc23)c1 [avitinib] | 27.6 | no effects | – | – | – | – | – | – | – | – | – | – | – | – | – | – | – |
| C=CC(=O)Nc1cc(Nc2nccc(-c3cn(C)c4ccccc34)n2)c(OC)cc1N(C)CCN(C)C [osimertinib] | – | – | 33.6 | 0.02062 | 52 | 1.91 | 1.92 | 1.66 | 1.39 | 1.74 | 44 | 2.35 | 2.38 | 1.72 | 1.31 | 1.48 | weak inhibitory effect |
